“Also recorded” adds a separate entry of the source.
Columns and labels:
GST-PPAR beta/delta LBD = target: T1, GST-PPAR beta/delta LBD (Homo sapiens, UniProt Q03181); assay: Ligand-induced binding of corepressor peptide SMRT-ID2, TR-FRET; type: biochemical; details: concentration dependent
T1 construct: GST-PPAR beta/delta LBD (GST=glutathione S-transferase); purchased Invitrogen, Darmstadt, Germany
T1 sequence (Q03181 211-439 limits assumed): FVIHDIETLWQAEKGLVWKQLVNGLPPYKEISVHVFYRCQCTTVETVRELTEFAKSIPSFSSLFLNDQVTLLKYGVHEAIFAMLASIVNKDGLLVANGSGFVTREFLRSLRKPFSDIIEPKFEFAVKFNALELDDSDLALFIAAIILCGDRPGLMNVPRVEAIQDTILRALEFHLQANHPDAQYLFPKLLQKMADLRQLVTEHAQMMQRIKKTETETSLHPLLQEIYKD
Description: FIG. 2: Induction of corepressor peptide binding to GST-PPAR beta/delta ligand binding domain (LBD) in vitro in dependency of the concentration of the substances of this invention comparative compound (CC) 2, compound 1 (A), compound 2 (B), compound 3 (C), compound 4 (D) and compound 5 (E). The interaction of fluorescein-labeled SMRT-ID2 peptide with recombinant GST-PPAR beta/delta LBD bound to a terbium-labeled anti-GST antibody is determined by TR-FRET analysis. Shown is the ratio of fluorescence intensity at 520 nm (fluorescein emission, excited by terbium emission) and 495 nm (terbium emission). All data points represent average values of triplicates (+/−standard deviation).
B) The ligand-induced binding of the commercially available fluorescein-labeled corepressor peptide SMRT-ID2 ([…]) (Invitrogen, Darmstadt, Germany) to GST-PPAR beta/delta is for example measured by TR-FRET analysis using a terbium-labeled anti-GST antibody in a VICTOR3V Multilabel Counter (WALLAC 1420; PerkinElmer Life and Analytical Sciences, Rodgau, Germany). The measurement is performed in a buffer composed of 100 mM KC, 20 mM Tris pH 7.9, 0.01% Triton X100 and 1 μg/μL bovine serum albumin.

ANGPTL4 gene expression [1] = assay: ANGPTL4 gene expression (qPCR) in WPMY-1 myofibroblasts; type: cell-based, human; details: Homo sapiens, 6 h; WPMY-1 cells, six hours treatment; read-out: IC50 (mean inhibitory concentration), endogenous ANGPTL4 expression
Description: (§1) FIG. 5: Influence of the substances of this invention comparative compound (CC) 2, compound 1, compound 5, compound 2 and compound 3 on ANGPTL4 gene expression. • (A) Comparison of relative ANGPTL4 expression, (B) mean inhibitory concentration of substances of this invention. (A) Human myofibroblasts (WPMY-1) are treated for 24 hours with the substances of this invention (1 μM), then RNA is isolated, the cDNA synthesized and analyzed by qPCR, normalized to L27 gene expression. (B) Titration of the effect of substances of this invention on the endogenous ANGPTL4 expression in WPMY-1 cells (left) or peritoneal mouse macrophages (right) after cells have been treated for six hours with the substances of this invention compound 1 and compound 2, respectively; RNA isolation, cDNA synthesis and qPCR as described for (A). The relative expression is calculated in relation to DMSO-treated cells. All values are average values of triplicates (+1-standard deviation). Asterisks (***, **, *) indicate significant differences to DMSO-treated cells (***: p<0.001 after t-test; *: p <0.05).
The influence of substances of this invention on PPAR-beta/delta regulated genes like for example ANGPTL4 which codes for the angiopoietin-like protein ANGPTL4 is assessed in different cells with a confluence of 70% to 80% in a 6-well cell culture plate. For this purpose, cultivated human myofibroblasts (WPMY-1), peritoneal mouse macrophages or cells of the human breast cancer cell line MDA-MB-231 are treated for 24 hours with 1 μM of the substances of this invention. Cells of the breast cancer cell line are in addition stimulated for 6 hours with TGF-beta2 (2 ng/ml) which is commercially available. Subsequently, RNA is isolated from the cells by procedures known to the expert and analyzed by quantitative PCR (qPCR, real time qPCR, RT-qPCR) also known to those skilled in the art. […]

ANGPTL4 gene expression [2] = assay: ANGPTL4 gene expression (qPCR) in peritoneal mouse macrophages; type: cell-based; details: Macrophage, 6 h, six hours treatment, read-out: IC50 (mean inhibitory concentration), endogenous ANGPTL4 expression
Description: as §1, with “All values are average values of triplicates (+1-standard deviation). Asterisks (***, **, *) indicate significant differences to DMSO-treated cells (***: p<0.001 after t-test; *: p <0.05).” left out
The influence of substances of this invention on PPAR-beta/delta regulated genes like for example ANGPTL4 which codes for the angiopoietin-like protein ANGPTL4 is assessed in different cells with a confluence of 70% to 80% in a 6-well cell culture plate. […] Subsequently, RNA is isolated from the cells by procedures known to the expert and analyzed by quantitative PCR (qPCR, real time qPCR, RT-qPCR) also known to those skilled in the art. […]

ANGPTL4 gene expression [3] = assay: ANGPTL4 expression (qPCR) in breast cancer cell line MDA-MB-231; type: cell-based, human; details: for TGF-beta2-induced ANGPTL4 expression: MDA-MB-231, 1 μM pre-treatment 24 hours, then TGF-beta2 2 ng/ml for 6 hours
Description: FIG. 6: Influence of the substances of this invention compound 1 and compound 5 on the induction of ANGPTL4 expression by TGF-beta2 in the breast cancer cell line MDA-MB-231. • The human breast cancer cell line MDA-MB-231 is pre-treated for 24 hours with 1 μM of the substances of this invention compound 1 or compound 5, respectively, and subsequently stimulated with TGF-beta2 (2 ng/ml) for 6 hours. The relative ANGPTL4 expression is determined by qPCR.
The influence of substances of this invention on PPAR-beta/delta regulated genes like for example ANGPTL4 which codes for the angiopoietin-like protein ANGPTL4 is assessed in different cells with a confluence of 70% to 80% in a 6-well cell culture plate. For this purpose, cultivated human myofibroblasts (WPMY-1), peritoneal mouse macrophages or cells of the human breast cancer cell line MDA-MB-231 are treated for 24 hours with 1 μM of the substances of this invention. Cells of the breast cancer cell line are in addition stimulated for 6 hours with TGF-beta2 (2 ng/ml) which is commercially available. Subsequently, RNA is isolated from the cells by procedures known to the expert and analyzed by quantitative PCR (qPCR, real time qPCR, RT-qPCR) also known to those skilled in the art. For this, cDNA is synthesized using 0.25 μg to 1 μg of RNA, oligo(dT)-primers and a commercially available cDNA synthesis kit. qPCR is then conducted in a Mx3000P RT-qPCR system (Stratagene, La Jolla, Calif., USA) according to the manufacturer's instructions with 40 cycles, an annealing temperature of 60° C., and for example human ANGPTL4 primers (fw: […]; rv: […]) and the ribosomal I27 (fw: […]; rv: […]) as normalizing gene known to the expert in this field. […] The respective IC50 value (mean inhibitory concentration) for substances of this invention compound 1 and compound 2 is depicted in FIG. 5 B and is maximal 20 nM in WPMY-1 cells and maximal 30 nM in peritoneal mouse macrophages, respectively.

ANGPTL4 gene expression [4] = assay: Stimulus-induced ANGPTL4 expression in human fibroblasts; type: cell-based

| SMILES | induction of interaction of PPAR beta/delta LBD with corepressor peptide SMRT-ID2 (GST-PPAR beta/delta LBD) | IC50 (ANGPTL4 gene expression [1]) [nM] | IC50 (ANGPTL4 gene expression [2]) [nM] | TGF-beta2-induced ANGPTL4 expression (ANGPTL4 gene expression [3]) | ANGPTL4 expression (ANGPTL4 gene expression [3]; breast cancer cell line MDA-MB-231-luc21H4) | induction of ANGPTL4 expression by TGF-beta1, TGF-beta2, dexamethasone or TPA (ANGPTL4 gene expression [4]) |
| --- | --- | --- | --- | --- | --- | --- |
| CCCCCCNc1ccc(NS(=O)(=O)c2ccsc2C(=O)OC)c(OC)c1 [compound 1, methyl 3-(N-(4-(hexylamino)-2-methoxyphenyl)sulfamoyl)thiophene-2-carboxylate] | clearly demonstrate the interaction; also recorded: induce | ≤ 20 | ≤ 30 | loss of TGF-beta2-induced ANGPTL4 expression | drastic reduction | significantly be reduced |
| COC(=O)c1sccc1S(=O)(=O)Nc1ccc(NC(C)(C)C)cc1OC [compound 5, methyl 3-(N-(4-(tert-butylamino)-2-methoxyphenyl)sulfamoyl)thiophene-2-carboxylate] | – | – | – | does not influence the induction of ANGPTL4 expression | – | – |
| CCCCCCNc1ccc(NS(=O)(=O)c2ccsc2C(=O)OC)cc1OC [compound 2, methyl 3-(N-(4-(hexylamino)-3-methoxyphenyl)sulfamoyl)thiophene-2-carboxylate] | clearly demonstrate the interaction; also recorded: induce | ≤ 20 | ≤ 30 | – | – | – |

Reference: patent publication US20150018411A1, “COMPOUNDS AS PPAR BETA/DELTA INHIBITORS FOR TREATING PPAR BETA/DELTA-MEDIATED DISEASES” (PHILIPPS-UNIVERSITAT MARBURG, priority 2011, published 2015)
